From article PMC12501029, “Discovery of a CNS active GSK3 degrader using orthogonally reactive linker screening” (Nature Communications, 2025) come the findings set out here.

Data set [1] concerns GSK3β Ser9 and GSK3β Tyr216 phosphorylation. In words: GSK3β phosphorylation (Ser9, Tyr216) immunoblot in HEK293 cells. In kind it is cell-based, human. To be noted: 10 nM 24, 27; 10 nM and 1 µM 29; 30 min. The method, then:
HEK293, HAP1, HAP1 CRBN KO and SH-SY5Y cells were plated in either 6 cm plates or 6-well plates at varying densities (0.5–0.7 × 10^6 cells per plate or wells), and MEF cells were plated in 10 cm plates (1–1.2 × 10^6 cells per plate) depending on experimental set up in respective culturing condition as described above. Stock solutions of compounds were prepared as 10 mM in DMSO (Sigma–Aldrich). Working dilutions were made up fresh in DMSO and culturing media or differentiation media was refreshed prior to any compound treatments. For mode of action studies, cells were pre-treated with inhibitors for 2 h: 1 µM MG132 (Merck, 474790-5 mg), 1 µM MLN4924 (Merck, 5054770001) or 1 µM GSK3 inhibitor (compound 29), before treating with PROTACs for 2, 4 or 24 h as indicated in figure legends. Cells were washed twice with ice-cold PBS (Gibco), harvested in PBS and pelleted, cells were resuspended in RIPA buffer supplemented with complete EDTA-free protease inhibitor cocktail (Roche,11873580001, 1/10 mL) and phosSTOP (Roche, 04906845001, 1 tablet/10 mL) for 20 min lysis on ice then cleared via centrifugation at 16,000 × g, 4 °C for 20 min. SH-SY5Y cells were lysed in 500 µL ice-cold lysis buffer (25 mM Tris-HCl (pH 7.4), 50 mM NaF, 100 mM NaCl, 1 mM EDTA, 4 mM EGTA, 1% (v/v) Triton-X-100, 0.09% (w/v) sucrose, 10 mM sodium pyrophosphate, 10 mM sodium vanodate, 0.1% (v/v) β-mercaptoethanol, supplemented with complete mini protease inhibitor tablet (Sigma; 1 tablet/ 10 mL buffer)). Lysates were flash frozen, thawed and centrifugated at 16,000 × g, 4 °C for 20 min. Following clearance of lysates, protein concentrations were determined by the BCA assay (Fisher Scientific, 23225) or Bradford assay (Bio-rad). Five to thirty micrograms of protein from lysates were prepared in 4×LDS buffer (Thermo Fisher) and 50 mM dithiothreitol (DTT) denaturated at 95 °C for 5 min. Proteins were separated on NuPAGE 4–12% Bis-Tris gels (Invitrogen) or 4–12% Novex Tris-glycine gels (Invitrogen) in MOPS buffer (Invitrogen) and transferred onto nitrocellulose membranes using an iBlot3 system (Thermo Fisher Scientific) or nitrocellulose membranes (Cytiva) in cold tris-glycine-methanol buffer (25 mM Tris (pH 7.5), 192 mM glycine, 20% (v/v) methanol). Membranes were blocked with either 5% fat-free milk (Marvel) or 1% (w/v) BSA (Sigma) in TBS-T (20 mM Tris (pH 7.5), 150 mM NaCl, 0.1% (v/v) Tween-20 (Sigma)) at room temperature for 30 min, or in the case of SH-SY5Y assays, 1 h, before incubating with primary antibodies overnight at 4 °C on a rocker. […]
A general note: Immunoblotting shows a protein as a band on a membrane.

For the next data set, the system named is mouse liver proteome. In words: Whole proteome analysis of liver tissue from PK/PD study. Format: in vivo, female Balb/c mice. The note with it: 5 mg/kg i.v., 4 h; GSK3α could not be quantified.
A short description of data set [2]: Plasma protein binding, equilibrium dialysis, mouse. The note with it: female, CD1, mouse. Format: in vitro ADME. The protocol:
A 96-well equilibrium dialysis apparatus was used to determine the free fraction in plasma for each compound (HT Dialysis LLC, Gales Ferry, CT). Membranes (12–14 kDA cut-off) were conditioned in deionised water for 60 min, followed by conditioning in 80:20 deionised water: ethanol for 20 min, and then rinsed in isotonic buffer before use. Female CD1 mouse, Male rat Han Wistar and human plasma was removed from the freezer and allowed to thaw on the day of experiment. Thawed plasma was then centrifuged (Allegra X12-R, Beckman Coulter, USA), spiked with test compound (final concentration 10 μg/mL), and 150 μL aliquots (n = 6 replicate determinations) loaded into the 96-well equilibrium dialysis plate. Dialysis vs isotonic buffer (150 μL) was carried out for 5 h in a temperature-controlled incubator at ca. 37 °C (Barworld Scientific Ltd, UK) using an orbital microplate shaker at 100 revolutions/minute (Barworld Scientific Ltd, UK). At the end of the incubation period, 50 μL aliquots of plasma or buffer were transferred to a 96-well 2.1 mL Waters ^TM plate and the composition in each well balanced with control fluid (50 μL), such that the volume of buffer to plasma is the same. Sample extraction was performed by the addition of 200 μL of acetonitrile containing an appropriate internal standard. Samples were allowed to mix for 1 min and then centrifuged at 3000 rpm in 96-well blocks for 15 min (Allegra X12-R, Beckman Coulter, USA), after which 150 μL of supernatant was removed to 50 μL of water. All samples were analysed by UPLC-MS/MS. The unbound fraction was determined as the ratio of the peak area in buffer to that in plasma.

Where [3] appears, read: 10 μg/mL, 5 h dialysis, read-out: Plasma Protein Binding (Fu) Mu.

Like-named read-outs stand apart in the source and are kept apart here.

For the compound `Cn1nc(N2CCC(=O)NC2=O)c2ccc(CN3CCN(Cc4ccc(-c5cn(-c6ccc(-c7cn8nccc(C(=O)Nc9cnccc9N9CCOCC9)c8n7)cc6)nn5)nc4)CC3)cc21` [compound 24], the “impact on GSK3β Ser9 or GSK3β Tyr216 phosphorylation prior to degradation” value in data set [1] was “no impact observed”. Moreover, the “proteome wide specificity in liver” value in the data set on mouse liver proteome is “high levels of proteome wide specificity for GSK3β removal”. The fraction unbound at 5 h, 10 μg/mL in data set [2] (setting [3]) was determined as 0.0052; in data set [2] (equilibrium dialysis, read-out: unbound fraction in mouse plasma), 0.005.
`Cn1nc(N2CCC(=O)NC2=O)c2ccc(CN3CCN(CCCc4cn(-c5ccc(-c6cn7nccc(C(=O)Nc8cnccc8N8CCOCC8)c7n6)cc5)nn4)CC3)cc21` [compound 26]: the fraction unbound at 5 h, 10 μg/mL in data set [2] (setting [3]) was 0.021.
